For data set [1], the system named is Micrococcus luteus. The data set is described as follows: Antibacterial activity against Micrococcus luteus clinical isolate measured after 24 hrs by broth microdilution method. It counts as functional. (In general: Dilution methods test growth across graded concentrations, often in twofold steps.)
Data set [2] in a line: Lipophilicity, logP of the compound. It counts as physicochemical. The following applies: octanol/water.
In data set [3] the test system is Bacillus subtilis. Put plainly: Antibacterial activity against Bacillus subtilis 168 measured after 24 hrs by broth microdilution method. Format: functional.
The subject of data set [4] is Staphylococcus aureus. Put plainly: Antibacterial activity against Staphylococcus aureus ATCC 29213 measured after 24 hrs by broth microdilution method. It counts as functional.
Data set [5] deals with Escherichia coli. The data set is described as follows: Antibacterial activity against Escherichia coli MG 1655 measured after 24 hrs by broth microdilution method. It counts as functional.
For data set [6], the system named is Pseudomonas aeruginosa. The data set is described as follows: Antibacterial activity against Pseudomonas aeruginosa ATCC 27853 measured after 24 hrs by broth microdilution method. Format: functional.

`CCCCCCCCCCCC(=O)NCCC[N+](C)(C)Cc1cnc(C)c2c1COC(C)(C)O2.[Cl-]`: the minimal inhibitory concentration (MIC) is 16 µg/mL in data set [1]; 8 µg/mL in data set [3]; 8 µg/mL in data set [4]; 64 µg/mL in data set [5]; 64 µg/mL in data set [6]. Also, the log partition coefficient (logP) in data set [2] worked out at 0.58.
Turning to `CCCCCCCCCCCCCCCC(=O)OCC[N+](C)(C)Cc1cnc(C)c2c1COC(CCC)O2.[Cl-]` (stereo unspecified), the minimal inhibitory concentration (MIC) in data set [1] is 1 µg/mL; in data set [3], 4 µg/mL; in data set [4] it was 2 µg/mL; in data set [5], over 64 µg/mL; in data set [6], 8 µg/mL. This compound also showed a logP in data set [2] of 3.86.
In the case of `CCCCCCCCCCCCCC(=O)OCCC[N+](C)(C)Cc1cnc(C)c2c1COC(CCCCC)O2.[Cl-]` (stereo unspecified), the MIC was 8 µg/mL in data set [1]; 4 µg/mL in data set [3]; 8 µg/mL in data set [4]; over 64 µg/mL in data set [5]; over 64 µg/mL in data set [6]. The logP in data set [2] is 3.92.
In the case of `CCCCCCCCCCCCCCCC(=O)NCC[N+](C)(C)Cc1cnc(C)c2c1COC(C)(C)O2.[Cl-]`, the minimum inhibitory concentration (MIC) in data set [1] amounted to 1 µg/mL; in data set [3] it was 4 µg/mL; in data set [4] it was 1 µg/mL; in data set [5], 32 µg/mL; in data set [6], 2 µg/mL. In data set [2], this compound had a log partition coefficient (logP) of 2.93.
In the case of `CCCCCCCCCCCCCCCC(=O)OCC[N+](C)(C)Cc1cnc(C)c2c1COC(C)(C)O2.[Cl-]`, the MIC in data set [1] was 0.5 µg/mL; in data set [3], 1 µg/mL; in data set [4] it was 0.5 µg/mL; in data set [5], over 64 µg/mL; in data set [6] it was 4 µg/mL. The compound further showed a lipophilicity (logP) in data set [2] of 3.03.
`CCCCCCCCCCCCCCCC(=O)NCC[N+](C)(C)Cc1cnc(C)c2c1COC(C)(CCC)O2.[Cl-]` (stereo unspecified): the MIC is 16 µg/mL in data set [1]; 16 µg/mL in data set [3]; 8 µg/mL in data set [4]; over 64 µg/mL in data set [5]; over 64 µg/mL in data set [6]. Besides, the log partition coefficient (logP) in data set [2] was determined as 3.13.
`CCCCCCCCCCCCCCCCCC(=O)NCC[N+](C)(C)Cc1cnc(C)c2c1COC(C)(CCC)O2.[Cl-]` (stereo unspecified): the MIC in data set [1], in data set [3], in data set [4], in data set [5] and in data set [6] was over 64 µg/mL throughout. For the same compound, the logP in data set [2] came out at 4.02.
Turning to `CCCCCCCCCCCCCCCC(=O)OCCC[N+](C)(C)Cc1cnc(C)c2c1COC(CCC)O2.[Cl-]` (stereo unspecified), the MIC in data set [1] was 8 µg/mL; in data set [3], 32 µg/mL; in data set [4], 32 µg/mL; in data set [5], over 64 µg/mL; in data set [6], 32 µg/mL. In data set [2], this compound came in with a logP of 3.92.
As for `CCCCCCCCCCCCCCCC(=O)NCCC[N+](C)(C)Cc1cnc(C)c2c1COC(C)(C)O2.[Cl-]`, the MIC is 2 µg/mL in data set [1]; 2 µg/mL in data set [3]; 4 µg/mL in data set [4]; over 64 µg/mL in data set [5]; 8 µg/mL in data set [6]. For the same compound, the lipophilicity (logP) in data set [2] amounted to 2.36.
Turning to `CCCCCCCCCCCCCC(=O)NCC[N+](C)(C)Cc1nc(C)c2c(c1CO)COC(CCC)O2.[Cl-]` (stereo unspecified), the MIC in data set [1] was 4 µg/mL; in data set [3], 2 µg/mL; in data set [4] it was 2 µg/mL; in data set [5], 64 µg/mL; in data set [6], over 64 µg/mL. In data set [2], the logP worked out at 1.56.
For `CCCCCCCCCCCC(=O)OCC[N+](C)(C)Cc1cnc(C)c2c1COC(C)(C)O2.[Cl-]`, the MIC stood at 4 µg/mL in data set [1]; 4 µg/mL in data set [3]; 4 µg/mL in data set [4]; 16 µg/mL in data set [5]; 64 µg/mL in data set [6]. In data set [2], this compound displayed a logP of 1.25.
Consider `CCCCCCCCCCCCCCCC(=O)NCCC[N+](C)(C)Cc1cnc(C)c2c1COC(C)(CCC)O2.[Cl-]` (stereo unspecified), for which the minimum inhibitory concentration (MIC) in data set [1] was 2 µg/mL; in data set [3] it was 4 µg/mL; in data set [4] it was 2 µg/mL; in data set [5], 2 µg/mL; in data set [6], over 64 µg/mL. This compound also came in with a logP in data set [2] of 3.19.
For `CCCCCCCCCCCCCCCCCC[N+](C)(C)Cc1cnc(C)c2c1COC(C)(C)O2.[Cl-]`, the MIC is 16 µg/mL in data set [1]; over 64 µg/mL in data set [3]; 4 µg/mL in data set [4]; over 64 µg/mL in data set [5]; over 64 µg/mL in data set [6]. Further, in data set [2], the logP was 4.35.
As to `CCCCCCCCCCCC(=O)NCC[N+](C)(C)Cc1cnc(C)c2c1COC(C)(C)O2.[Cl-]`, the MIC in data set [1] came to 4 µg/mL; in data set [3], 8 µg/mL; in data set [4] it was 1 µg/mL; in data set [5], 32 µg/mL; in data set [6], 32 µg/mL. Besides, the log partition coefficient (logP) in data set [2] came to 0.52.
`CCCCCCCCCCCCCCCCCC(=O)NCCC[N+](C)(C)Cc1cnc(C)c2c1COC(C)(CCC)O2.[Cl-]` (stereo unspecified): the MIC in data set [1], in data set [3], in data set [4], in data set [5] and in data set [6] was over 64 µg/mL in each case. Besides, the logP in data set [2] amounted to 4.08.
Consider `CCCCCCCCCCCC(=O)OCC[N+](C)(C)Cc1cnc(C)c2c1COC(CCC)O2.[Cl-]` (stereo unspecified), for which the MIC in data set [1] turned out to be 2 µg/mL; in data set [3] it was 2 µg/mL; in data set [4], 1 µg/mL; in data set [5], 4 µg/mL; in data set [6], 32 µg/mL. This compound yielded a logP in data set [2] of 2.08.
For `CCCCCCCCCCCCCC(=O)OCC[N+](C)(C)Cc1nc(C)c2c(c1CO)COC(CCC)O2.[Cl-]` (stereo unspecified), the minimum inhibitory concentration (MIC) in data set [1] is 2 µg/mL; in data set [3], 2 µg/mL; in data set [4], 2 µg/mL; in data set [5], 64 µg/mL; in data set [6], over 64 µg/mL. Further, the logP in data set [2] was found to be 2.29.
Regarding `CCCCCCCCCCCCCC(=O)OCCC[N+](C)(C)Cc1cnc(C)c2c1COC(CCCCCCCC)O2.[Cl-]` (stereo unspecified), the minimal inhibitory concentration (MIC) in data set [1], in data set [3], in data set [4], in data set [5] and in data set [6] was over 64 µg/mL in each case. This compound came in with a logP in data set [2] of 5.25.
Turning to `CCCCCCCCCCCCCC(=O)OCCC[N+](C)(C)Cc1nc(C)c2c(c1CO)COC(CCC)O2.[Cl-]` (stereo unspecified), the MIC is 2 µg/mL in data set [1]; 2 µg/mL in data set [3]; 2 µg/mL in data set [4]; 64 µg/mL in data set [5]; over 64 µg/mL in data set [6]. The same compound yielded a logP in data set [2] of 2.35.
In the case of `CCCCCC(=O)NCCC[N+](C)(C)Cc1cnc(C)c2c1COC(CCC)O2.[Cl-]` (stereo unspecified), the MIC in data set [1], in data set [3], in data set [4], in data set [5] and in data set [6] was over 64 µg/mL throughout. Besides, the logP in data set [2] was -1.25.
For the compound `CCCCCCCCCCCCCCCCCC(=O)NCC[N+](C)(C)Cc1cnc(C)c2c1COC(C)(C)O2.[Cl-]`, the MIC in data set [1] is 2 µg/mL; in data set [3] it was 8 µg/mL; in data set [4], 4 µg/mL; in data set [5], over 64 µg/mL; in data set [6] it was 8 µg/mL. The lipophilicity (logP) in data set [2] worked out at 3.19.
Regarding `CCCCCCCCCCCCCC(=O)NCCC[N+](C)(C)Cc1cnc(C)c2c1COC(C)(CCC)O2.[Cl-]` (stereo unspecified), the minimum inhibitory concentration (MIC) in data set [1] is 2 µg/mL; in data set [3], 2 µg/mL; in data set [4], 2 µg/mL; in data set [5], 2 µg/mL; in data set [6], over 64 µg/mL. For the same compound, the lipophilicity (logP) in data set [2] worked out at 2.3.
As for `CCCCCCCCCCCC(=O)NCCC[N+](C)(C)Cc1cnc(C)c2c1COC(C)(CCC)O2.[Cl-]` (stereo unspecified), the minimal inhibitory concentration (MIC) was 4 µg/mL in data set [1]; 4 µg/mL in data set [3]; 1 µg/mL in data set [4]; 8 µg/mL in data set [5]; 32 µg/mL in data set [6]. Besides, the lipophilicity (logP) in data set [2] is 1.41.
`CCCCCCCCCCCC(=O)OCCC[N+](C)(C)Cc1cnc(C)c2c1COC(C)(C)O2.[Cl-]`: the MIC stood at 2 µg/mL in data set [1]; 1 µg/mL in data set [3]; 2 µg/mL in data set [4]; 8 µg/mL in data set [5]; 32 µg/mL in data set [6]. This compound had a logP in data set [2] of 1.31.
On to `CCCCCCCCCCCCCC(=O)OCCC[N+](C)(C)Cc1cnc(C)c2c1COC(CCC)O2.[Cl-]` (stereo unspecified), for which the minimum inhibitory concentration (MIC) in data set [1] is 1 µg/mL; in data set [3] it was 2 µg/mL; in data set [4], 2 µg/mL; in data set [5] it was over 64 µg/mL; in data set [6], 4 µg/mL. The same compound came in with a logP in data set [2] of 3.03.
On to `CCCCCCCCCCCCCC(=O)OCCC[N+](C)(C)Cc1nc(C)c2c(c1CO)COC(C)(C)O2.[Cl-]`, for which the minimum inhibitory concentration (MIC) is 2 µg/mL in data set [1]; 0.5 µg/mL in data set [3]; 1 µg/mL in data set [4]; 64 µg/mL in data set [5]; over 64 µg/mL in data set [6]. For the same compound, in data set [2], the log partition coefficient (logP) was 1.52.
For `CCCCCCCCCCCCCC(=O)NCCC[N+](C)(C)Cc1cnc(C)c2c1COC(CCCCCCCC)O2.[Cl-]` (stereo unspecified), the MIC in data set [1], in data set [3], in data set [4], in data set [5] and in data set [6] was over 64 µg/mL in each case. In data set [2], the lipophilicity (logP) is 4.53.
Regarding `CCCCCCCCCCCCCC(=O)NCCC[N+](C)(C)Cc1nc(C)c2c(c1CO)COC(C)(C)O2.[Cl-]`, the minimum inhibitory concentration (MIC) in data set [1] is 1 µg/mL; in data set [3], 2 µg/mL; in data set [4] it was 2 µg/mL; in data set [5], 16 µg/mL; in data set [6] it was over 64 µg/mL. The logP in data set [2] was 0.79.
For `CCCCCCCCCCCCCCCC(=O)OCCC[N+](C)(C)Cc1cnc(C)c2c1COC(C)(C)O2.[Cl-]`, the MIC was 2 µg/mL in data set [1]; 8 µg/mL in data set [3]; 16 µg/mL in data set [4]; over 64 µg/mL in data set [5]; 32 µg/mL in data set [6]. The same compound registered a logP in data set [2] of 3.09.
Regarding `CCCCCC(=O)NCCC[N+](C)(C)Cc1cnc(C)c2c1COC(C)(C)O2.[Cl-]`, the MIC in data set [1], in data set [3], in data set [4], in data set [5] and in data set [6] was over 64 µg/mL throughout. The lipophilicity (logP) in data set [2] was -2.09.
For the compound `CCCCCCCCCCCCCC(=O)NCCC[N+](C)(C)Cc1cnc(C)c2c1COC(CCCCC)O2.[Cl-]` (stereo unspecified), the MIC in data set [1] was 2 µg/mL; in data set [3], 1 µg/mL; in data set [4], 2 µg/mL; in data set [5] it was over 64 µg/mL; in data set [6], over 64 µg/mL. Further, in data set [2], the logP was 3.19.

A word on the MIC: it is the lowest concentration that inhibits growth of the organism. A higher MIC goes with weaker potency. The term logP denotes a log measure of how a compound divides between an organic and an aqueous phase. A lower logP goes with lower lipophilicity.
